Measurements from article PMC9032693, “Biological Evaluation of New Thienopyridinium and Thienopyrimidinium Derivatives as Human Choline Kinase Inhibitors” (Pharmaceutics, 2022).
Where two headings read alike, the source gives them in different places.

Tests used:
[1] = tested on: HL-60; assay: Antiproliferative activity, resazurin assay, 72 h; type: cell-based, human
Description: (§1) Human cervix carcinoma (HeLa), Non-small lung adenocarcinoma (A549), Colon adenocarcinoma (HT29), and human triple negative breast cancer (MDA-MB-231) were cultured in Dulbecco’s modified Eagle’s media (DMEM). B-acute lymphoblastic leukemia (RS4;11 and SEM), T-acute lymphoblastic leukemia (Jurkat), and human promyelocytic cells (HL-60), were cultured in RPMI-1640 medium. Both media were purchased from Gibco, Life Technologies (Milan, Italy) and supplemented with 10% Fetal Bovine Serum (FBS, Invitrogen, Milan, Italy,). Every six months, each cell line was checked for the presence of mycoplasma by RT-PCR.
(§2) Stock solutions (10 mM) of the different compounds were made in DMSO. Cancer cells were seeded in tissue-treated, flat bottom, 384-well plates (Corning) according to their optimal density, (A549 1000 cells/wells; MDA-MB-231, HeLa and HT-29 2000 cells/well and finally Jurkat, HL-60 SEM and RS4;11 20.000 cells/well) in 27 µL of complete medium per well.
(§3) The day after cell seeding and immediately before cell treatment, 10 mM stock solutions of the compounds were pre-diluted to a […] concentration in 250 µL of Hank’s in a 96-well plate (Corning). Subsequent 1:5 dilutions were carried out using a microlab STAR 96-CORE liquid handling system (Hamilton), a robotized liquid handling tool that was employed for all steps, from cell seeding to drug dilution and cell treatment to ensure high reproducibility while reducing time for large screening execution. This pre-dilution step was necessary to avoid DMSO-related cytotoxicity and compound precipitation in the cell culture medium. In every case, DMSO concentration never exceeded 0.1%.
(§4) Positive (Bortezomib 1 µM) and negative (0.1% DMSO) controls were included in all the screened plates to allow for monitoring the Z’ factor throughout the entire screening. Cells were treated with 3 µL of the previously made dilutions; thus, generating a 6-point 5-fold dose–response curve starting from 10 µM. Within a plate, each drug concentration was tested in duplicate in two independent experiments for each compound.
(§5) Treated cells were then placed inside the CO2 incubator for 72 h at 37 °C. Cell viability was assessed by resazurin assay, in which 3 µL of resazurin per well were added using the previously described automated platform. Plates were placed in the incubator at 37 °C for 2 h, and then the fluorescence of each plate was read using a Spark 10 M multimode microplate reader (Tecan Group Ltd., Mannedorf, Switzerland) with 535 nm excitation wavelength and 600 nm emission wavelength.

[2] = tested on: HeLa; assay: Antiproliferative activity, resazurin assay, 72 h; type: cell-based, human
Description: as §1, §2, §3, §4, §5

[3] = tested on: SEM cells; assay: Antiproliferative activity, resazurin assay, 72 h; type: cell-based, human
Description: as §1, §2, §3, §4, §5

[4] = tested on: A549; assay: Antiproliferative activity, resazurin assay, 72 h; type: cell-based, human
Description: as §1, §2, §3, §4, §5

[5] = tested on: HT29; assay: Antiproliferative activity, resazurin assay, 72 h; type: cell-based, human
Description: as §1, §2, §3, §4, §5

[6] = tested on: MDA-MB-231; assay: Antiproliferative activity, resazurin assay, 72 h; type: cell-based, human
Description: as §1, §2, §3, §4, §5

[7] = tested on: Jurkat; assay: Antiproliferative activity, resazurin assay, 72 h; type: cell-based, human
Description: as §1, §2, §3, §4, §5

[8] = tested on: RS 4;11; assay: Antiproliferative activity, resazurin assay, 72 h; type: cell-based, human
Description: as §1, §2, §3, §4, §5

[9] = biological target: T1, CKα1 (Homo sapiens, UniProt P35790); assay: Choline kinase assay ([methyl-14C]choline into PCho, purified enzyme); type: biochemical; details: for IC50: concentration required to inhibit CKα1 enzyme by 50%; for % Inhibition at 10 µM: purified CKα1, inhibitor 10 µM; for % Inhibition at 10 µM / % Inhibition at 30 µM: end-point assay; for % Inhibition at 30 µM: purified CKα1, inhibitor 30 µM
T1 construct: an N-terminally His-tagged truncated form of CKα1 (Δ75–457) was cloned into a pET-28a vector; His tag (N); made in house; host or cells: E. coli BL21 (DE3) Star
T1 sequence (P35790 75-457): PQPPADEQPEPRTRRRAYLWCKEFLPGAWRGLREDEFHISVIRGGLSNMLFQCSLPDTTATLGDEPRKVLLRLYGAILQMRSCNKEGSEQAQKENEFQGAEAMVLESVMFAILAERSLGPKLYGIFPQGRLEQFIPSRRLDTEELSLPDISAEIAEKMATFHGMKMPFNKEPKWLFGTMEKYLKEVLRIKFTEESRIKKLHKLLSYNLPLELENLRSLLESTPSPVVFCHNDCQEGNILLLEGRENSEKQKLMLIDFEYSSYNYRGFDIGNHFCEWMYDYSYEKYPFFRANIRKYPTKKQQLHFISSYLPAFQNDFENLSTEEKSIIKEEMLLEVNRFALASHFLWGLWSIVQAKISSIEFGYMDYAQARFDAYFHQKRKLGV
Description: The protein was produced and purified as previously described. Briefly, an N-terminally His-tagged truncated form of CKα1 (Δ75–457) was cloned into a pET-28a vector and expressed at 37 °C in E. coli BL21 (DE3) Star cells using 1 mM isopropyl β-D-1-thiogalactopyranoside (IPTG). After centrifugation, the cellular pellet was resuspended in 50 mM Tris-HCl pH 7.5, 500 mM NaCl, 0.2 mM phenylmethylsulphonyl fluoride (PMSF), DNase, and 0.5 mM β-mercaptoethanol, sonicated and subjected to a two-step purification procedure to isolate the target enzyme. […] Protein elution was completed using buffer A + 400 mM imidazole. A second size-exclusion chromatography step was then carried out to achieve complete purity. To this end, we used a HiPrep 26/60 Sephacryl 100 HR column (GE Healthcare, Little Chalfont, Buckinghamshire, UK) and a 20 mM Tris/HCl pH 7.5, 150 mM NaCl running buffer.
To study the effect of the compounds on CKα, an in vitro enzymatic assay was performed using the purified enzyme as previously reported in [19, 28, 29]. Briefly, the incorporation of ^14C from [methyl-^14C]choline into PCho in either the absence (control) or presence of different inhibitors at varying concentrations was used to determine the CK activity. The reaction mixture included 20 ng of purified CKα1, 10 mM ATP, 10 mM MgCl2, 100 mM Tris-HCl pH 8.5, and increasing concentrations of compounds. The mixture was preincubated at 37 °C for 5 min. Then, [methyl-^14C]choline chloride (1 mM, 4500 dpm/nmol) was added and the reaction was left to proceed for 10 min at 37 °C. The assay was stopped by immersing the reaction tubes in boiling water. PCho was separated by Thin Layer Chromatography using methanol/0.6% NaCl/28% NH4OH in water (50:50:5, v/v/v) as solvent. The radioactivity associated into PCho was determined in a Beckman 6000-TA (Madrid, Spain) liquid scintillation counter. The 50% inhibitory concentrations (IC50 values) were determined from the % enzyme activity at different concentrations of synthetic inhibitors relative to the control by using a sigmoidal dose–response curve (ED50plus v1.0 software).

Structure (SMILES)	GI50 [1]	GI50 [2]	GI50 [3]	GI50 [4]	GI50 [5]	GI50 [6]	GI50 [7]	GI50 [8]	IC50 [9]	% Inhibition at 10 µM [9]	% Inhibition at 30 µM [9]	GI50 ([1]; Homo sapiens, HL-60)	GI50 ([2]; Homo sapiens, HeLa)	GI50 ([3]; Homo sapiens)	GI50 ([4]; Homo sapiens, A549)	GI50 ([5]; Homo sapiens, HT-29)	GI50 ([6]; Homo sapiens, MDA-MB-231)	GI50 ([7]; Homo sapiens, Jurkat)	GI50 ([8]; Homo sapiens, RS4-11)	inhibition at 5 µM ([9]; purified CKα1, inhibitor 5 µM, read-out: percentage inhibition at 5 µM)
[Br-].[Br-].c1cc2c(s1)c(N1CCCC1)cc[n+]2Cc1ccc(-c2ccc(C[n+]3ccc(N4CCCC4)c4sccc43)cc2)cc1 [Fg-9]	9.12 ± 1.1 µM	> 10 µM	> 10 µM	0.25 ± 0.02 µM	> 10 µM	2.02 ± 0.2 µM	> 10 µM	> 10 µM	≥ 5 µM	75.81%	94.95%									
c1cc2c(s1)c(N1CCCCCC1)nc[n+]2Cc1ccc(CCCCc2ccc(C[n+]3cnc(N4CCCCCC4)c4sccc43)cc2)cc1 [Fa-29]									1.08 ± 0.07 µM			0.55 ± 0.02 µM	0.84 ± 0.04 µM	1.77 ± 0.2 µM	0.14 ± 0.02 µM	1.09 ± 0.2 µM	0.5 ± 0.02 µM	5.23 ± 0.8 µM	1.6 ± 0.1 µM	85%
[Br-].[Br-].c1cc2c(s1)c(N1CCCCCC1)cc[n+]2Cc1ccc(-c2ccc(C[n+]3ccc(N4CCCCCC4)c4sccc43)cc2)cc1 [Fg-10]	0.44 ± 0.05 µM	1.59 ± 0.1 µM	3.51 ± 0.8 µM	0.31 ± 0.01 µM	1.76 ± 0.2 µM	1.46 ± 0.2 µM	6.33 ± 0.6 µM	2.77 ± 0.9 µM	≥ 10 µM	80.76%	96.98%									
[Br-].[Br-].c1cc2c(s1)c(N1CCCC1)nc[n+]2Cc1ccc(-c2ccc(C[n+]3cnc(N4CCCC4)c4sccc43)cc2)cc1 [Fa-21]	3.4 ± 0.7 µM	> 10 µM	> 10 µM	0.22 ± 0.01 µM	> 10 µM	1.71 ± 0.4 µM	> 10 µM	> 10 µM	≥ 5 µM	74.57%	86.58%									
[Br-].[Br-].c1cc2c(N3CCCCC3)nc[n+](Cc3ccc(CCCCc4ccc(C[n+]5cnc(N6CCCCC6)c6ccsc65)cc4)cc3)c2s1 [Ff-6]	0.19 ± 0.01 µM	0.42 ± 0.05 µM	2.52 ± 0.2 µM	0.19 ± 0.03 µM	0.93 ± 0.04 µM	0.5 ± 0.02 µM	6.7 ± 0.8 µM	1.5 ± 0.2 µM	≥ 10 µM	46.43%	73.19%									
CN(C)c1cc[n+](Cc2ccc(CCCCc3ccc(C[n+]4ccc(N(C)C)cc4)cc3)cc2)cc1 [MN-48b, reference compound]	0.32 ± 0.03 µM	1.9 ± 0.1 µM		0.54 ± 0.2 µM	1.9 ± 0.4 µM	0.31 ± 0.12 µM	0.35 ± 0.1 µM	1 ± 0.3 µM	0.78 ± 0.03 µM											
C/[N+](c1ccc(Cl)cc1)=c1\ccn(Cc2ccc(-c3ccc(Cn4cc/c(=[N+](/C)c5ccc(Cl)cc5)c5ccccc54)cc3)cc2)c2ccccc12 [RSM-932A, reference compound]												0.93 ± 0.1 µM	0.83 ± 0.1 µM		0.45 ± 0.09 µM	0.4 ± 0.2 µM	0.17 ± 0.05 µM	0.41 ± 0.1 µM	0.17 ± 0.04 µM	
[Br-].[Br-].c1cc2c(N3CCCCC3)nc[n+](Cc3ccc(-c4ccc(C[n+]5cnc(N6CCCCC6)c6ccsc65)cc4)cc3)c2s1 [Fg-30]		2.89 ± 0.3 µM	> 10 µM	0.6 ± 0.02 µM	8.32 ± 0.9 µM	0.8 ± 0.02 µM	> 10 µM	> 10 µM	≥ 5 µM	75.46%	85.71%									
